{"source": "ChEMBL document CHEMBL2401658", "about": "“Selectivity of phenothiazine cholinesterase inhibitors for neurotransmitter systems” (Bioorg Med Chem Lett, 2013)", "key": {"[1]": {"biological_target": "5-hydroxytryptamine receptor 2A (Homo sapiens, UniProt P28223)", "sequence (P28223 whole entry)": "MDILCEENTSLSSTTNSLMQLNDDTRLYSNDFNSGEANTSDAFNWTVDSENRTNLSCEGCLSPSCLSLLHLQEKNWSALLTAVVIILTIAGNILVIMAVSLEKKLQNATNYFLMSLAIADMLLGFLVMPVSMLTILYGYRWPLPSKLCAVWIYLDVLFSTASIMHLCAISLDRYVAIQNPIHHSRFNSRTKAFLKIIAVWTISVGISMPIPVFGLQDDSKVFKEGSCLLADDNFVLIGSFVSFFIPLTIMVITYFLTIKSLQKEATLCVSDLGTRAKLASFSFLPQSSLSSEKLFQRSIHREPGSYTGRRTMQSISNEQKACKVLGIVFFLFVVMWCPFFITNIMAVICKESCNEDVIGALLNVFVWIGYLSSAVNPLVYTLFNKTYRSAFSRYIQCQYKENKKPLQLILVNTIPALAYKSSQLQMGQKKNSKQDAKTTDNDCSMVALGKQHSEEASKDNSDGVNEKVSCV", "assay": "Antagonist activity at serotonin 5HT2A receptor (unknown origin) by PDSP assay"}, "[2]": {"biological_target": "5-hydroxytryptamine receptor 2B (Homo sapiens, UniProt P41595)", "sequence (P41595 whole entry)": "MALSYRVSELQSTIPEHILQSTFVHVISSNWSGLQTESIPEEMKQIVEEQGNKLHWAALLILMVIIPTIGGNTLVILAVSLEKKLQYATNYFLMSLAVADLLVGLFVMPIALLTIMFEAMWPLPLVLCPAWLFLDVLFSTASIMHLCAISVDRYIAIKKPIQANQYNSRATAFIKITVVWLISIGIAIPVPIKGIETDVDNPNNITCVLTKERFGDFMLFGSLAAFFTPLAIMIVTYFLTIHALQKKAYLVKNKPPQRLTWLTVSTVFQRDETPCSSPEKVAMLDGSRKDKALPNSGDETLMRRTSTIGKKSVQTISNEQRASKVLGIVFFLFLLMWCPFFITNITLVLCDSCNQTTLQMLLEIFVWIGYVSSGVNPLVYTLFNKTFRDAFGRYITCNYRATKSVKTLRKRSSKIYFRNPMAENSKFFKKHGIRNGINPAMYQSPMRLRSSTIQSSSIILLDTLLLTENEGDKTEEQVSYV", "assay": "Antagonist activity at serotonin 5HT2B receptor (unknown origin) by PDSP assay"}, "[3]": {"biological_target": "Beta-3 adrenergic receptor (Homo sapiens, UniProt P13945)", "sequence (P13945 whole entry)": "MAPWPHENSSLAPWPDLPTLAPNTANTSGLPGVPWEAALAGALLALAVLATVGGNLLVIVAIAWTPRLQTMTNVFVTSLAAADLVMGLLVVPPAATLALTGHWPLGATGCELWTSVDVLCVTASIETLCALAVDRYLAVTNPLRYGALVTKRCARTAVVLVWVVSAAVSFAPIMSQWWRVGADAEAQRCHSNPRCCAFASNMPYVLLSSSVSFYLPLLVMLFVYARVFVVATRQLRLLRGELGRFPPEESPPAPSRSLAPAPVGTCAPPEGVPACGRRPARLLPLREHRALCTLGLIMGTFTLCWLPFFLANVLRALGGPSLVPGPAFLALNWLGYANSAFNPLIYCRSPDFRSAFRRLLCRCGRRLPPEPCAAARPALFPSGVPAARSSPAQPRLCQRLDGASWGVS", "assay": "Antagonist activity at adrenergic beta3 receptor (unknown origin) by PDSP assay"}, "[4]": {"biological_target": "T1, 5-hydroxytryptamine receptor 1A (Homo sapiens, UniProt P08908)", "T1 sequence (P08908 whole entry)": "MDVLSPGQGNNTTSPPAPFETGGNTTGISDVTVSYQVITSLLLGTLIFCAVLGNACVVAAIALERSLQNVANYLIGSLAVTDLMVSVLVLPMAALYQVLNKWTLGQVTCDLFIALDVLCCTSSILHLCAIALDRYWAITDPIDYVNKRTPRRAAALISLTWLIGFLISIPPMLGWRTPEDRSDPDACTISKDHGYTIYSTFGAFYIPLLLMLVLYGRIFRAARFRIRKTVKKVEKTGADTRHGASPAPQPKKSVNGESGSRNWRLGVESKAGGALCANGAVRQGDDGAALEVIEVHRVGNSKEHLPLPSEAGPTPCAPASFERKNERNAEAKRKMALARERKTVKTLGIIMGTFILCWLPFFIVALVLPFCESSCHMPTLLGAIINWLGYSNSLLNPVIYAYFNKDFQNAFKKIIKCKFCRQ", "assay": "Antagonist activity at serotonin 5HT1A receptor (unknown origin) by PDSP assay"}, "[5]": {"biological_target": "D(3) dopamine receptor (Homo sapiens, UniProt P35462)", "sequence (P35462 whole entry)": "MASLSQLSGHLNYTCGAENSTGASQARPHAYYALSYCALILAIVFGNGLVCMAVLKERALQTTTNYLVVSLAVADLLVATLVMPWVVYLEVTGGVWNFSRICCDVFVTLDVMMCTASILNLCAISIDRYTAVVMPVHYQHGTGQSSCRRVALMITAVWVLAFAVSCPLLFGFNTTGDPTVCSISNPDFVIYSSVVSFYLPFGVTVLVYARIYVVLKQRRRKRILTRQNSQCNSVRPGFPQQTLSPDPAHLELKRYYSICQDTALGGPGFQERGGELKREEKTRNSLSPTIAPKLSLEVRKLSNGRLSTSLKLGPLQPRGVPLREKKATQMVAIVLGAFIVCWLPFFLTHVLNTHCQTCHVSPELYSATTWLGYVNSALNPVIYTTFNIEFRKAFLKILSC", "assay": "Antagonist activity at dopamine D3 receptor (unknown origin) by PDSP assay"}, "[6]": {"biological_target": "T2, 5-hydroxytryptamine receptor 2C (Homo sapiens, UniProt P28335)", "T2 sequence (P28335 whole entry)": "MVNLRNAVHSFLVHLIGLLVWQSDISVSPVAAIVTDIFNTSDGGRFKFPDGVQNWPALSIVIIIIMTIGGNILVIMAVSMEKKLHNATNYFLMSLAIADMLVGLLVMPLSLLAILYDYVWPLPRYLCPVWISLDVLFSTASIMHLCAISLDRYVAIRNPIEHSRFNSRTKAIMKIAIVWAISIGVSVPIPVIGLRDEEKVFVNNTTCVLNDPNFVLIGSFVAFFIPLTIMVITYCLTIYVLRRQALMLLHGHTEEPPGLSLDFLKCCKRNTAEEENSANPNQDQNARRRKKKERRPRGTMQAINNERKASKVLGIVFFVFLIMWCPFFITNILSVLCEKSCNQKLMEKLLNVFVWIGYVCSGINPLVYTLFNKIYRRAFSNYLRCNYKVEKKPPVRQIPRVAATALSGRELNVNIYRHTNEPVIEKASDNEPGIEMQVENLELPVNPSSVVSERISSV", "assay": "Antagonist activity at serotonin 5HT2C receptor (unknown origin) by PDSP assay"}, "[7]": {"biological_target": "5-hydroxytryptamine receptor 6 (Homo sapiens, UniProt P50406)", "sequence (P50406 whole entry)": "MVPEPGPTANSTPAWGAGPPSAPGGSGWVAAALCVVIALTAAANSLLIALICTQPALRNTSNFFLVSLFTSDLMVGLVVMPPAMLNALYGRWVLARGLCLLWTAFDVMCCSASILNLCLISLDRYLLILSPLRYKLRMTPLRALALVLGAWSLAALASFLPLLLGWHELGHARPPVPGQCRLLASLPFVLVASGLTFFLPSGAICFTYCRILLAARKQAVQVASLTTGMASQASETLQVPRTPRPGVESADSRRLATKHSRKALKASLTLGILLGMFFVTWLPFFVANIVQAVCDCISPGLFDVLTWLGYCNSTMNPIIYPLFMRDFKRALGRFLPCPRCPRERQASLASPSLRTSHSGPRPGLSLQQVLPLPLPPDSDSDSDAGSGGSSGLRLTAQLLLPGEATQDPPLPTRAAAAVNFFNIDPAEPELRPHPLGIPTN", "assay": "Antagonist activity at serotonin 5HT6 receptor (unknown origin) by PDSP assay"}, "[8]": {"biological_target": "Alpha-1A adrenergic receptor (Homo sapiens, UniProt P35348)", "assay": "Antagonist activity at adrenergic alpha1A receptor (unknown origin) by PDSP assay"}, "[9]": {"biological_target": "Sodium-dependent dopamine transporter (Homo sapiens, UniProt Q01959)", "sequence (Q01959 whole entry)": "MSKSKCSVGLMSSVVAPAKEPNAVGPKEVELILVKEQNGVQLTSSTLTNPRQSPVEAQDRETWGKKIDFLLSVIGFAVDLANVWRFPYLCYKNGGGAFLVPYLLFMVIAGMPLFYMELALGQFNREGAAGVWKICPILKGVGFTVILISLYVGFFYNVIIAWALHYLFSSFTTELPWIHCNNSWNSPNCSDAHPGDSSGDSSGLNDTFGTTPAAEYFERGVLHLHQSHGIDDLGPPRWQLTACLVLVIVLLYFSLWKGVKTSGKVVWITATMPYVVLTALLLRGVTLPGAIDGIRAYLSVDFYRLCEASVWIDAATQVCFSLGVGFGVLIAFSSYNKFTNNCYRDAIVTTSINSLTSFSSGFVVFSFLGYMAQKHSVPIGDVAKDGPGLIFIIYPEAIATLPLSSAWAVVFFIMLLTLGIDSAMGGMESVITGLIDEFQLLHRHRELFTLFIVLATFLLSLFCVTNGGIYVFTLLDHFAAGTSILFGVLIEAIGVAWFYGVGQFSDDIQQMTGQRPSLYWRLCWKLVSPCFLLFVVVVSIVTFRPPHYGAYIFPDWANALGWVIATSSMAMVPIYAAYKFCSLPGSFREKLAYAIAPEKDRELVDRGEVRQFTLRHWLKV", "assay": "Antagonist activity at DAT (unknown origin) by PDSP assay"}, "[10]": {"biological_target": "Cholinesterase (Homo sapiens, UniProt P06276)", "sequence (P06276 whole entry)": "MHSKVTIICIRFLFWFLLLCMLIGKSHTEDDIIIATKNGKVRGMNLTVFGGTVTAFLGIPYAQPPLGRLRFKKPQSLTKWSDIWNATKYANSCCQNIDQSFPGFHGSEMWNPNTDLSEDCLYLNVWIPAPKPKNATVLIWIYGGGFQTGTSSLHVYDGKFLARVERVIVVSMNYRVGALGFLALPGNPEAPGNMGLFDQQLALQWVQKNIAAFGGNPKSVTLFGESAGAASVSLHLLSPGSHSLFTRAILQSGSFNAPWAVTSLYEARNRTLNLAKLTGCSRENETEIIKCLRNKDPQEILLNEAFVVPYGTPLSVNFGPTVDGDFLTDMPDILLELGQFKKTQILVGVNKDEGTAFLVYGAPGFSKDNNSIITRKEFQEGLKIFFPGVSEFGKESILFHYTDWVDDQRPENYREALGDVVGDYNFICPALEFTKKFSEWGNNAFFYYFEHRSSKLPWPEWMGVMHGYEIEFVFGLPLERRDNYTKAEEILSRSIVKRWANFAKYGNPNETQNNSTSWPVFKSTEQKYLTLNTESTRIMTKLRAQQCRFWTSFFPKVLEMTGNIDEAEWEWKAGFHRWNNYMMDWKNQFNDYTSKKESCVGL", "assay": "Inhibition of BuChE (unknown origin)"}, "[11]": {"biological_target": "Histamine H2 receptor (Homo sapiens, UniProt P25021)", "sequence (P25021 whole entry)": "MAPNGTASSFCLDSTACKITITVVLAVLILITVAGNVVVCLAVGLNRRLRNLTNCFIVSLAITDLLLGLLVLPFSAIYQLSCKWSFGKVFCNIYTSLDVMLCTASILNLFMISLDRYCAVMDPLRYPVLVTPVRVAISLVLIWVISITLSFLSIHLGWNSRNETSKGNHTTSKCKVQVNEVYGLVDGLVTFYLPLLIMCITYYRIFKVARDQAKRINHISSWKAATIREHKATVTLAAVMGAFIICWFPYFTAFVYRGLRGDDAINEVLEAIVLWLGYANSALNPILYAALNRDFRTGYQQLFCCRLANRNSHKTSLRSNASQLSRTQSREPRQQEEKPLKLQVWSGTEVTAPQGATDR", "assay": "Antagonist activity at histamine H2 receptor (unknown origin) by PDSP assay"}, "[12]": {"biological_target": "Sodium-dependent serotonin transporter (Homo sapiens, UniProt P31645)", "assay": "Antagonist activity at serotonin transporter (unknown origin) by PDSP assay"}, "[13]": {"biological_target": "Alpha-1D adrenergic receptor (Homo sapiens, UniProt P25100)", "assay": "Antagonist activity at adrenergic alpha 1D receptor (unknown origin) by PDSP assay"}, "[14]": {"biological_target": "Muscarinic acetylcholine receptor M3 (Homo sapiens, UniProt P20309)", "assay": "Antagonist activity at muscarinic M3 receptor (unknown origin) by PDSP assay"}, "[15]": {"biological_target": "Muscarinic acetylcholine receptor M4 (Homo sapiens, UniProt P08173)", "assay": "Antagonist activity at muscarinic M4 receptor (unknown origin) by PDSP assay"}, "[16]": {"biological_target": "5-hydroxytryptamine receptor 1D (Homo sapiens, UniProt P28221)", "assay": "Antagonist activity at serotonin 5HT1D receptor (unknown origin) by PDSP assay"}, "[17]": {"biological_target": "Histamine H1 receptor (Homo sapiens, UniProt P35367)", "assay": "Antagonist activity at histamine H1 receptor (unknown origin) by PDSP assay"}, "[18]": {"biological_target": "Alpha-2C adrenergic receptor (Homo sapiens, UniProt P18825)", "assay": "Antagonist activity at adrenergic alpha2C receptor (unknown origin) by PDSP assay"}, "[19]": {"biological_target": "Muscarinic acetylcholine receptor M2 (Homo sapiens, UniProt P08172)", "sequence (P08172 whole entry)": "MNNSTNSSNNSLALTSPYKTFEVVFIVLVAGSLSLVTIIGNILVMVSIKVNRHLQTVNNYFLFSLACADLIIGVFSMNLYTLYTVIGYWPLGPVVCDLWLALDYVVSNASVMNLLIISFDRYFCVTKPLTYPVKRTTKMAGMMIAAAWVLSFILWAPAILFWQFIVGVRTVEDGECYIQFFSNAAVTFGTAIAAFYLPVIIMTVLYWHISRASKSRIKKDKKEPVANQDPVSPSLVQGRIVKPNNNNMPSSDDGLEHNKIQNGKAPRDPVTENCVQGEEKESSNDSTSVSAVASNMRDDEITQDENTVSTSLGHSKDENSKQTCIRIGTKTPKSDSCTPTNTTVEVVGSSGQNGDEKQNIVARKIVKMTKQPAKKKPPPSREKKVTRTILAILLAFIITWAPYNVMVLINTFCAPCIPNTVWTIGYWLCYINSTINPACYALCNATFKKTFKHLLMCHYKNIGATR", "assay": "Antagonist activity at muscarinic M2 receptor (unknown origin) by PDSP assay"}, "[20]": {"biological_target": "Muscarinic acetylcholine receptor M1 (Homo sapiens, UniProt P11229)", "assay": "Antagonist activity at muscarinic M1 receptor (unknown origin) by PDSP assay"}, "[21]": {"biological_target": "5-hydroxytryptamine receptor 3A (Homo sapiens, UniProt P46098)", "assay": "Antagonist activity at serotonin 5HT3 receptor (unknown origin) by PDSP assay"}, "[22]": {"biological_target": "Histamine H3 receptor (Homo sapiens, UniProt Q9Y5N1)", "sequence (Q9Y5N1 whole entry)": "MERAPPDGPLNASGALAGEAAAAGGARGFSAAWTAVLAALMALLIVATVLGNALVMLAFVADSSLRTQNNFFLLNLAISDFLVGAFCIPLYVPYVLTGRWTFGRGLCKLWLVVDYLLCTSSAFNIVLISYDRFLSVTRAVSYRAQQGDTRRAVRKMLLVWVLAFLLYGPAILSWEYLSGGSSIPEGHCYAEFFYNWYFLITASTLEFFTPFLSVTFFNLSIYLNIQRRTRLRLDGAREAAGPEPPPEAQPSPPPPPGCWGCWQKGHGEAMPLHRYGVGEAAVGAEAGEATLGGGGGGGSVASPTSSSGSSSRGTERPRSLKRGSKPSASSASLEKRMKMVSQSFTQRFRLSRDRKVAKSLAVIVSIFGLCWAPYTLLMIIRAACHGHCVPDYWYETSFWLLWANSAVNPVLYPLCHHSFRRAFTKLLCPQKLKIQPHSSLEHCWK", "assay": "Antagonist activity at histamine H3 receptor (unknown origin) by PDSP assay"}, "[23]": {"biological_target": "Muscarinic acetylcholine receptor M5 (Homo sapiens, UniProt P08912)", "assay": "Antagonist activity at muscarinic M5 receptor (unknown origin) by PDSP assay"}, "[24]": {"biological_target": "5-hydroxytryptamine receptor 7 (Homo sapiens, UniProt P34969)", "assay": "Antagonist activity at serotonin 5HT7 receptor (unknown origin) by PDSP assay"}, "[25]": {"biological_target": "5-hydroxytryptamine receptor 5A (Homo sapiens, UniProt P47898)", "assay": "Antagonist activity at serotonin 5HT5A receptor (unknown origin) by PDSP assay"}, "[26]": {"biological_target": "Alpha-2A adrenergic receptor (Homo sapiens, UniProt P08913)", "assay": "Antagonist activity at adrenergic alpha2A receptor (unknown origin) by PDSP assay"}, "[27]": {"biological_target": "5-hydroxytryptamine receptor 1B (Homo sapiens, UniProt P28222)", "assay": "Antagonist activity at serotonin 5HT1B receptor (unknown origin) by PDSP assay"}, "[28]": {"biological_target": "D(1A) dopamine receptor (Homo sapiens, UniProt P21728)", "assay": "Antagonist activity at dopamine D1 receptor (unknown origin) by PDSP assay"}, "[29]": {"biological_target": "Alpha-2B adrenergic receptor (Homo sapiens, UniProt P18089)", "assay": "Antagonist activity at adrenergic alpha2B receptor (unknown origin) by PDSP assay"}}}
{"smiles": "CC(C(=O)N1c2ccccc2Sc2ccccc21)c1ccccc1", "note": "(stereo not drawn)", "values": [{"measurement": "Ki", "setting": "[1]", "result": 180, "unit": "nM"}, {"measurement": "Ki", "setting": "[2]", "result": 170, "unit": "nM"}, {"measurement": "Ki", "setting": "[3]", "result": 2500, "unit": "nM"}, {"measurement": "Ki", "setting": "[4]", "result": 1100, "unit": "nM"}, {"measurement": "Ki", "setting": "[5]", "result": 8900, "unit": "nM"}, {"measurement": "Ki", "setting": "[6]", "result": 390, "unit": "nM"}, {"measurement": "Ki", "setting": "[7]", "result": 1200, "unit": "nM"}]}
{"smiles": "O=C(Cc1ccc2ccccc2c1)N1c2ccccc2Sc2ccccc21", "values": [{"measurement": "Ki", "setting": "[2]", "result": 2000, "unit": "nM"}, {"measurement": "Ki", "setting": "[8]", "result": 330, "unit": "nM"}, {"measurement": "Ki", "setting": "[6]", "result": 2200, "unit": "nM"}, {"measurement": "Ki", "setting": "[7]", "result": 9900, "unit": "nM"}, {"measurement": "Ki", "setting": "[9]", "result": 6600, "unit": "nM"}, {"measurement": "Ki", "setting": "[10]", "result": 30, "unit": "nM"}]}
{"smiles": "O=C(Oc1cccc2ccccc12)N1c2ccccc2Sc2ccccc21", "values": [{"measurement": "Ki", "setting": "[9]", "result": 3900, "unit": "nM"}, {"measurement": "Ki", "setting": "[10]", "result": 40, "unit": "nM"}]}
{"smiles": "O=C(CCCc1ccccc1)N1c2ccccc2Sc2ccccc21", "values": [{"measurement": "Ki", "setting": "[1]", "result": 1600, "unit": "nM"}, {"measurement": "Ki", "setting": "[3]", "result": 1700, "unit": "nM"}, {"measurement": "Ki", "setting": "[11]", "result": 7500, "unit": "nM"}, {"measurement": "Ki", "setting": "[12]", "result": 3800, "unit": "nM"}, {"measurement": "Ki", "setting": "[13]", "result": 4100, "unit": "nM"}, {"measurement": "Ki", "setting": "[9]", "result": 3300, "unit": "nM"}]}
{"smiles": "CCN(CC)CCCOC(=O)N1c2ccccc2Sc2ccccc21", "values": [{"measurement": "Ki", "setting": "[14]", "result": 170, "unit": "nM"}, {"measurement": "Ki", "setting": "[15]", "result": 21, "unit": "nM"}, {"measurement": "Ki", "setting": "[1]", "result": 3600, "unit": "nM"}, {"measurement": "Ki", "setting": "[2]", "result": 630, "unit": "nM"}, {"measurement": "Ki", "setting": "[16]", "result": 2700, "unit": "nM"}, {"measurement": "Ki", "setting": "[11]", "result": 1400, "unit": "nM"}, {"measurement": "Ki", "setting": "[17]", "result": 430, "unit": "nM"}, {"measurement": "Ki", "setting": "[4]", "result": 450, "unit": "nM"}, {"measurement": "Ki", "setting": "[5]", "result": 1000, "unit": "nM"}, {"measurement": "Ki", "setting": "[18]", "result": 600, "unit": "nM"}, {"measurement": "Ki", "setting": "[19]", "result": 220, "unit": "nM"}, {"measurement": "Ki", "setting": "[20]", "result": 64, "unit": "nM"}, {"measurement": "Ki", "setting": "[6]", "result": 3100, "unit": "nM"}, {"measurement": "Ki", "setting": "[9]", "result": 6000, "unit": "nM"}, {"measurement": "Ki", "setting": "[21]", "result": 3900, "unit": "nM"}, {"measurement": "Ki", "setting": "[22]", "result": 960, "unit": "nM"}, {"measurement": "Ki", "setting": "[23]", "result": 120, "unit": "nM"}]}
{"smiles": "O=C(C1CCCCCC1)N1c2ccccc2Sc2ccccc21", "values": [{"measurement": "Ki", "setting": "[1]", "result": 1700, "unit": "nM"}, {"measurement": "Ki", "setting": "[10]", "result": 860, "unit": "nM"}]}
{"smiles": "O=C(c1cccc(Br)c1)N1c2ccccc2Sc2ccccc21", "values": [{"measurement": "Ki", "setting": "[9]", "result": 92, "unit": "nM"}]}
{"smiles": "O=C(OCCN1CCCC1)N1c2ccccc2Sc2ccccc21", "values": [{"measurement": "Ki", "setting": "[14]", "result": 66, "unit": "nM"}, {"measurement": "Ki", "setting": "[15]", "result": 54, "unit": "nM"}, {"measurement": "Ki", "setting": "[24]", "result": 330, "unit": "nM"}, {"measurement": "Ki", "setting": "[1]", "result": 2400, "unit": "nM"}, {"measurement": "Ki", "setting": "[2]", "result": 100, "unit": "nM"}, {"measurement": "Ki", "setting": "[25]", "result": 2200, "unit": "nM"}, {"measurement": "Ki", "setting": "[11]", "result": 540, "unit": "nM"}, {"measurement": "Ki", "setting": "[17]", "result": 29, "unit": "nM"}, {"measurement": "Ki", "setting": "[26]", "result": 95, "unit": "nM"}, {"measurement": "Ki", "setting": "[27]", "result": 2200, "unit": "nM"}, {"measurement": "Ki", "setting": "[4]", "result": 1700, "unit": "nM"}, {"measurement": "Ki", "setting": "[5]", "result": 1000, "unit": "nM"}, {"measurement": "Ki", "setting": "[18]", "result": 830, "unit": "nM"}, {"measurement": "Ki", "setting": "[19]", "result": 100, "unit": "nM"}, {"measurement": "Ki", "setting": "[20]", "result": 2, "unit": "nM"}, {"measurement": "Ki", "setting": "[6]", "result": 940, "unit": "nM"}, {"measurement": "Ki", "setting": "[28]", "result": 5900, "unit": "nM"}, {"measurement": "Ki", "setting": "[9]", "result": 970, "unit": "nM"}, {"measurement": "Ki", "setting": "[29]", "result": 800, "unit": "nM"}, {"measurement": "Ki", "setting": "[21]", "result": 1900, "unit": "nM"}, {"measurement": "Ki", "setting": "[22]", "result": 6000, "unit": "nM"}, {"measurement": "Ki", "setting": "[23]", "result": 6, "unit": "nM"}]}
